# Results from PMC9619402 (Journal of Medicinal Chemistry, 2022).
# Read-outs that look alike come from different tables or passages of the source. Marks after values point to notes of the source that are not given here.
# Legend:
# [1] = tested on: 468 kinases (scanMax panel); assay: Eurofins/DiscoverX scanMax panel (KINOMEscan) kinome profile; type: binding; settings: fraction of kinases bound >50%
# [2] = biological target: LIMK2 (LIMK2_347–659, kinase catalytic domain) (Homo sapiens, UniProt P53671); type: biochemical
# [3] = biological target: PAK pLIMK2 (PAK-phosphorylated LIMK2) (Homo sapiens, UniProt P53671); type: biochemical; settings: 6 nM LIMK2 + 0.2 nM PAK1 kinase domain; mean ± SEM
# [4] = biological target: T1, LIMK1 (NanoLuc LIMK1 kinase fusion) (Homo sapiens, UniProt P53667); type: cell-based; settings: HEK293 cells, 2 h; mean ± SEM
# T1 construct: host or cells: HEK293
# Procedure: (§1) HEK293 cells were resuspended in growth media following routine trypsinization, neutralization, and sedimentation techniques. Cell density was adjusted to 1 ×10^5 cells/mL for each transfection in a total of 25 mL media. The transfection mix was added directly to the cells and mixed gently by inversion. The cells were then plated into T-75 tissue culture flasks and incubated for 20 h.
# (§2) Kit components were purchased from Promega (Hampshire, U.K.). […] NanoBRET Tracer #10 (27.5 μL) was diluted in 192.5 μL of DMSO for use as a positive control, which was further diluted with 880 μL of tracer dilution buffer. For negative control, 20 μL of DMSO was added to 80 μL of tracer dilution buffer. LIMK1/2-transfected HEK293 cells were trypsinized, centrifuged, and resuspended in 10 mL of Opti-MEM. Extracellular NanoLuc inhibitor was added at 1:10,000 dilution to the cells, after which 85 μL of cells/well were plated into flat-bottomed, white, 96-well plates. For positive control wells, 5 μL of NanoBRET Tracer #10 was added to wells without compound. For negative controls, the DMSO/tracer dilution buffer solution was added to wells without compound. For test compounds, 10 μL of diluted compounds from the intermediate plate were added in duplicate or DMSO (for control wells) at a final concentration of 0.5% DMSO in Opti-MEM. Plates were incubated at 37 °C and 5% CO2 for 2 h. […] A solution of Nano-Glo substrate was made consisting of 72 μL of Nano-Glo substrate and 11.93 mL of Opti-MEM (without phenol red) and mixed gently by inversion 5–10 times.
# [5] = biological target: T2, LIMK2 (NanoLuc LIMK2 kinase fusion) (Homo sapiens, UniProt P53671); type: cell-based; settings: HEK293 cells, 2 h; mean ± SEM
# T2 construct: host or cells: HEK293
# Procedure: as §1, §2
# [6] = tested on: p-cofilin levels in SH-SY5Y cells; assay: cells; settings: Homo sapiens, 2 h, read-out: AlphaLISA pIC50 p-cofilin (converted)
# Procedure: SH-SY5Y cells were plated into a 96-well plate at 20,000 cells/well. The next day, compounds were prepared in an 8-point, 3-fold serial dilution in DMSO and then further diluted to 20-fold in DMEM/F12 with 10% FBS, 1% antibiotics. SH-SY5Y cell media was replaced with fresh DMEM/F12 media containing 10% FBS and 1% antibiotics. Compounds were added to the SH-SY5Y cells in duplicate at a final compound concentration of 10 μM to 3 nM. LIMKi3 (10 μM) was used as a positive control and 0.5% DMSO was used as a negative control. Cells were placed in the incubator for 2 h, after which the media was removed, and the cells were lysed using 50 μL of AlphaLISA 1× lysis buffer (Perkin Elmer) containing protease inhibitor cocktail (Sigma-Aldrich, Dorset, U.K.) and Pierce phosphatase inhibitor cocktail (Thermofisher, U.K.). Cells were placed on a plate shaker at 350 rpm at RT. Ten microliters of total cell lysate was then transferred to a clean, flat-bottom, white 384-well plate. An acceptor bead solution was made consisting of reaction buffer 1, reaction buffer 2, activation buffer, and acceptor beads from the p-Cofilin SureFire Ultra assay kit (Perkin Elmer, Cat# ALSU-PCOF-A500). To each well in the assay, 5 μL of the acceptor mix was added to the wells under dim light; the plate was placed on a plate shaker for 2 min at 450 rpm, centrifuged briefly, and the plate was incubated at RT for 1 h. A donor solution, consisting of dilution buffer and donor beads, was added at 5 μL/well, mixed on a plate shaker, centrifuged briefly, and incubated at RT for 1 h. Finally, the plate was read on a Pherastar reader (BMG Labtech Ltd., Aylesbury, U.K.) using an AlphaLISA cartridge and AlphaLISA plate settings.
# [7] = biological target: LIMK1 (LIMK1_330–637, kinase catalytic domain) (Homo sapiens, UniProt P53667); settings: for preference between LIMK1 and LIMK2: RapidFire, LIMK1 versus LIMK2, at best
# [8] = biological target: PAK pLIMK1 (PAK-phosphorylated LIMK1) (Homo sapiens, UniProt P53667); assay: RapidFire mass spectrometry kinase assay, PAK-phosphorylated LIMK1; settings: 5 nM LIMK1 + 0.4 nM PAK1 kinase domain; mean ± SEM
# In vivo DMPK, IV dosing = settings: male, Sprague-Dawley, rat
# Procedure: In vivo studies were carried out under appropriate licenses at Pharmidex (U.K.), Sygnature Discovery (U.K.), or Sai Life (India) using male Sprague-Dawley rats. […] Serial plasma samples were obtained at predetermined time points and then stored at −20 °C. Samples were then thawed, protein-precipitated with acetonitrile followed by LCMS/MS quantification.
# Caco-2 permeability = type: in vitro ADME; settings: for efflux ratio: Caco-2, Table S1
# Thermodynamic solubility = type: physicochemical; settings: pH 7, PBS, 24 h room temperature; average of two experiments; read-out: aq. solubility
# Procedure: The samples were then centrifuged at >10,000 rpm for 10 min to pellet any remaining solid. […] To prepare the standard, an 8-point, 1:3 dilution curve was prepared in DMSO with a top concentration of 1 mM, which was then diluted to 1:100 in acetonitrile containing 2 μM of carbamazepine. Standards and samples were analyzed via LCMS/MS. The compound carbamazepine peak area ratios were calculated, and the test article solubility was determined by interpolation from the standard curve.
# [9] = Microsomal stability, rat microsomes; settings: pH 7.4
# Procedure: (§3) After mixing thoroughly, the T = 0 sample (40 μL) was immediately quenched into an 80 μL ice-cold methanol containing a 4 μM internal standard (carbamazepine). Three further samples were quenched in the same way at T = 3, 9, and 30 min. Samples were incubated on ice for 30 min before centrifugation at 4700 rpm for 20 min. The supernatant was analyzed via LCMS/MS, and compound/carbamazepine peak area ratios were calculated to determine the rate of substrate depletion.
# [10] = Microsomal stability, human microsomes; settings: pH 7.4
# Procedure: as §3
# [11] = 15 nM LIMK2 catalytic domain, 4 μM CFL1, 2 mM ATP, mean ± SEM, pIC50 greater than 8.1 treat with caution
# [12] = 40 nM LIMK1 catalytic domain, 4 μM CFL1, 2 mM ATP, mean ± SEM, at least three experiments unless footnoted, pIC50 greater than 7.7 treat with caution
# PAK pLIMK2 (PAK-phosphorylated LIMK2), sequence (P53671 326-638 limits assumed): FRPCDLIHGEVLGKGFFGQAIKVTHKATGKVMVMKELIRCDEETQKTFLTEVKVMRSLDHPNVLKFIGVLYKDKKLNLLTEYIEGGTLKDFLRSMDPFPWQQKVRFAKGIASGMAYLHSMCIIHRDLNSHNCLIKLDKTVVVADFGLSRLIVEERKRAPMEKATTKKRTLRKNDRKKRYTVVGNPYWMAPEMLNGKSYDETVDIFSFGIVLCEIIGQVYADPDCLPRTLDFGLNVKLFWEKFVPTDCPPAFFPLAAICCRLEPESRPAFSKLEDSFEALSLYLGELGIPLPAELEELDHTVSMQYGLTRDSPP
# LIMK2 (LIMK2_347–659, kinase catalytic domain), sequence (P53671 326-638 limits assumed): as above
# LIMK1 (LIMK1_330–637, kinase catalytic domain), sequence (P53667 330-637): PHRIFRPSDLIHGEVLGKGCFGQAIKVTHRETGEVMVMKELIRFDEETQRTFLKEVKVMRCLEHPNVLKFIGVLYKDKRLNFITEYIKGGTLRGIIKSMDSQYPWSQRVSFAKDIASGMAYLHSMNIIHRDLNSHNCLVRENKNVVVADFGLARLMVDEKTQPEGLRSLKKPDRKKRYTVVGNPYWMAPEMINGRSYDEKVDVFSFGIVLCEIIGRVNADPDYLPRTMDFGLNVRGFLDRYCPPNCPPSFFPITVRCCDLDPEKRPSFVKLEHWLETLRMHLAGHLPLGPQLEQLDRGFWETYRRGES
# PAK pLIMK1 (PAK-phosphorylated LIMK1), sequence (P53667 330-637): as above
# T2 sequence (P53671 whole entry, the tested form may be a part): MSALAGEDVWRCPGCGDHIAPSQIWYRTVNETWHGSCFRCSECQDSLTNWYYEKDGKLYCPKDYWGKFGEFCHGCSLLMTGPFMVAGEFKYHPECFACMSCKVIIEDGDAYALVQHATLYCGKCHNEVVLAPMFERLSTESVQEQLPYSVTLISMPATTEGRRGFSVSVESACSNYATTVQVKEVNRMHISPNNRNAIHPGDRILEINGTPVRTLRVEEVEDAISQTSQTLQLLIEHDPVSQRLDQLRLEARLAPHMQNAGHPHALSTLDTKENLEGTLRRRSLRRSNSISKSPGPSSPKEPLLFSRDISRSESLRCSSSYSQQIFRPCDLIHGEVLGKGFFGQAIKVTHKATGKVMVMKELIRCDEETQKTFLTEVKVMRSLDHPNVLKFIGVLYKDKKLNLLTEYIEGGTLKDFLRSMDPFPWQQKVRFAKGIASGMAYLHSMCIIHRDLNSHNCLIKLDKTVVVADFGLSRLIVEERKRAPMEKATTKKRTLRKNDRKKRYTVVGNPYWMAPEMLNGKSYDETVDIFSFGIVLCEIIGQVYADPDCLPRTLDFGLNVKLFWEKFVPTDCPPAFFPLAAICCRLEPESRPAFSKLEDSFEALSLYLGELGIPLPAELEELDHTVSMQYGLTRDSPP
# T1 sequence (P53667 whole entry, the tested form may be a part): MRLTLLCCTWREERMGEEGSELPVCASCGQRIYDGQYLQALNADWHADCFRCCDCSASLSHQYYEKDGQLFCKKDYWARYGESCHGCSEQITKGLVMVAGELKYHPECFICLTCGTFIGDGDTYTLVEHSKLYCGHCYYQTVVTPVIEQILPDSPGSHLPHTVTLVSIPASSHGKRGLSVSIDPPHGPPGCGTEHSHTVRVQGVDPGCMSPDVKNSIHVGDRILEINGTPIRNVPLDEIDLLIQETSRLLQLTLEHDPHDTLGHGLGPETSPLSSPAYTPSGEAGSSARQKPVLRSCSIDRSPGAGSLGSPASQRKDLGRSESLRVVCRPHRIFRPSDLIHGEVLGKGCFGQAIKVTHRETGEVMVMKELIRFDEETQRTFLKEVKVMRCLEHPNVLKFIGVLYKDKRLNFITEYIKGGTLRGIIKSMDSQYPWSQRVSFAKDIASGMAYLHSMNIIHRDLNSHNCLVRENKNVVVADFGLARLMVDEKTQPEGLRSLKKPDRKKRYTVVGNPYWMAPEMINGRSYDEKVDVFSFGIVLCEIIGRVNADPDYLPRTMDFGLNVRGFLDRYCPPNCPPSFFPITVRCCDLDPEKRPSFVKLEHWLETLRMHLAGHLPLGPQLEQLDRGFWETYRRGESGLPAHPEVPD
SMILES,"RapidFire pIC50 LIMK2 [2, 11]",RapidFire pIC50 PAK pLIMK2 [3],NanoBRET pIC50 LIMK1 [4],NanoBRET pIC50 LIMK2 [5],IC50 [6] [nM],"RapidFire pIC50 LIMK1 [7, 12]",RapidFire pIC50 PAK pLIMK1 [8],also measured
CCn1c(=O)c(-c2ccc(Cl)cc2Cl)cc2cnc(Nc3ccc(N4CCNCC4)c(F)c3)nc21 [Compound 1],,,,,,,,"kinome S50 ([1]; 1000 nM): 0.54 (468, 1000 nM)"
O=C(Nc1ncc(-c2cc(C(F)F)nn2-c2c(Cl)cccc2Cl)s1)C1CC1 [Compound 2],7.52 ± 0.04,6.56 ± 0.06,7.09 ± 0.08,7.79 ± 0.02,39.8,7.75 ± 0.04,7.00 ± 0.03,
CCNC(=O)Nc1ncc(-c2cc(-c3c(C)cc(OC)cc3C)nc(-c3cnccn3)n2)s1 [Compound 3],6.87 ± 0.10,6.15 ± 0.04,6.45 ± 0.14,6.33 ± 0.12,457,7.25 ± 0.06,5.64 ± 0.06,
CC(C)C(=O)Nc1ncc(-c2cc(C(F)F)nn2-c2c(Cl)cccc2Cl)s1 [Compound 4],,,,,,,,"Vd (In vivo DMPK, IV dosing): 2 L/kg; half-life (In vivo DMPK, IV dosing; 0.2 mg/kg): 1.1 h; Papp A→B (Caco-2 permeability; human, Caco-2, A – B): 8.8 ×10⁻⁶ cm/s; Papp B→A (Caco-2 permeability; human, Caco-2, B – A): 12.4 ×10⁻⁶ cm/s"
Cc1c[nH]c2ncnc(N3CCN(C(=O)Nc4cccc(OC(=O)N(C)C)c4)[C@@H](C)C3)c12 [Compound 6],,7.68 ± 0.07,8.28 ± 0.08,8.61 ± 0.04,3.02,,7.68 ± 0.04,RapidFire pIC50 LIMK2 [2]: 8.74 ± 0.12; RapidFire pIC50 LIMK1 [7]: 8.70 ± 0.07
Cc1c[nH]c2ncnc(N3CCC(CN)(C(=O)Nc4cccc(OC(=O)N(C)C)c4)CC3)c12 [Compound 7],,6.51 ± 0.04,,8.17 ^d,,,,"solubility at 24 h (Thermodynamic solubility): 451 µM; Vd (In vivo DMPK, IV dosing): 6.4 L/kg; clearance (In vivo DMPK, IV dosing): 98.1 mL/min/kg; half-life (In vivo DMPK, IV dosing; 0.5 mg/kg): 1.3 h; kinome S50 ([1]; 300 nM): 0.13 (468, 300 nM); microsomal CLint at 0.5 h, 4 µM [9]: 50 µL/min/mg; microsomal CLint at 0.5 h, 4 µM [10]: 3 µL/min/mg"
Cc1c[nH]c2ncnc(-c3ccc(NC(=O)N(CCO)c4ccccc4)cc3)c12 [Compound 8],,,,,,,,"solubility at 24 h (Thermodynamic solubility): 28 µM; clearance (In vivo DMPK, IV dosing): 4.2 mL/min/kg; half-life (In vivo DMPK, IV dosing): 2.2 h; Vd (In vivo DMPK, IV dosing; 1 mg/kg): 0.5 L/kg; microsomal CLint at 0.5 h, 4 µM [9]: 18 µL/min/mg; microsomal CLint at 0.5 h, 4 µM [10]: 8 µL/min/mg"
CCc1cccc(CC)c1NC(=O)N1Cc2n[nH]c(NC(=O)c3ccc(N4CCN(C)CC4)cc3)c2C1 [Compound 11],5.10 ± 0.04,<5,<5,<5,> 10000,6.39 ± 0.03,6.24 ± 0.04,"efflux ratio (Caco-2 permeability): high efflux; efflux ratio (Caco-2 permeability; human, read-out: Efflux ratio): 279; preference between LIMK1 and LIMK2 [7]: ~10 fold"
Cc1cc(Nc2nc(N[C@@H](C)c3ccc(F)cc3)c(C#N)cc2F)n[nH]1 [Compound 12],,5.18 ± 0.03,<5,<5,> 10000,,6.52 ± 0.01,"RapidFire pIC50 LIMK2 [2]: 5.71 ± 0.14; efflux ratio (Caco-2 permeability; human, read-out: Efflux ratio): 1.01; RapidFire pIC50 LIMK1 [7]: 6.82 ± 0.06; preference between LIMK1 and LIMK2 [7]: ~10 fold"
"Cc1cc(Nc2cc(CN3CCOCC3)c3nc(C)c(Cc4ccc(Cl)cc4F)n3n2)n[nH]1 [Compound 13, gandotinib]",<5,5.22 ± 0.05,<5,<5,> 10000,6.40 ± 0.03,5.98 ± 0.06,"efflux ratio (Caco-2 permeability): high efflux; efflux ratio (Caco-2 permeability; human, read-out: Efflux ratio): 10.2; preference between LIMK1 and LIMK2 [7]: ~10 fold"
Cn1cc(-c2[nH]c3cc(NC(=O)[C@H](N)C4CCCCC4)cc4c3c2C=NNC4=O)cn1 [Compound 16],<5,5.47 ± 0.04,6.40 ± 0.04,6.56 ± 0.02,> 10000,6.09 ± 0.07,6.76 ± 0.12,
CN1C(=O)[C@@H](N2CCc3c(nn(Cc4ccccc4)c3C(N)=O)C2=O)COc2cc(Cl)ccc21 [Compound 17],,,,,,,,"kinome S50 ([1]; 1000 nM): 0.01 (468, 1,000 nM)"
